Source: US20210368825A1, “FEED ADDITIVE FOR DAIRY CATTLE COMPRISING N-ACETYL-L-TRYPTOPHAN AS ACTIVE INGREDIENT” (CJ CHEILJEDANG CORPORATION, priority 2018, published 2021)
“And” between values parts separate entries of the source, which are not always exact repeats. Equal values may be shown once. “Also recorded” adds a separate entry of the source.

Legend:
[1] = test system: calves born from dairy cattle; test: Analysis of weight of calf born from dairy cattle according to NALT feeding; type: in vivo, Holstein Friesian cows (calves); details: for weight of calf: mother fed NALT 15 g/d in dry period
Description: (§1) From among Holstein Friesian cows in the late stage of gestation corresponding to 60 days before calving, 8 cows were selected in consideration of calving time (expected calving date±15 days), the number of calving (calving number), and the like, and 4 cows were assigned to each of a control (untreated) and a treated group.
(§2) In the present disclosure, as a basal diet fed during a dry period and a milking period, total mixed ration (TMR), roughage, and concentrates were provided in accordance with NRC (2001) nutrition requirements for dry cows. In the case of the treated group, evaluation was performed by supplementing N-acetyl-L-tryptophan (NALT) to the basal diet. Newborn calves were fed with colostrum for 3 days and then fed with milk obtained during a milking process for 8 weeks.
(§3) Evaluation of feed feeding before calving by feeding N-acetyl-L-tryptophan was performed for 60±8 days (error caused by difference in expected calving dates). The control was fed with the basal diet, and the treated group was fed with the basal diet supplemented with 15 g of NALT.
Weights of calves born from dairy cattle used for the experiment were measured after drying the body surface immediately after calving (before feeding colostrum; using a scale, GL-6000S Series, G-Tech International Co., LTD), and then weights were measured four times in total for 8 weeks at an interval of 2 weeks (weight before feeding milk). Colostrum was obtained from mother cows and fed to calves at 3 a.m. and 3 p.m. until 3 days after calving. Then, 3.8 L of milk was provided per day, and the concentrates were available without limitation from a feed bucket separately for individual animals.

[2] = test system: milking cows after calving; test: Analysis of milk yield of dairy cattle after calving according to NALT feeding; type: in vivo, Holstein Friesian cows
Description: as §1, §2, §3
Milk yield of each of the 8 milking cows used in the present disclosure was recorded at 3 a.m. and 3 p.m. every day for 8 weeks, and average milk yield was calculated after pooling them every two weeks after calving.

[3] = test system: calves born from dairy cattle; test: Metabolic change of calves born from dairy cattle according to NALT feeding; type: in vivo, Holstein Friesian cows (calves)
Description: as §1, §2, §3
(§4) Blood was collected from dairy cattle and calves during 6 weeks of the dry period and immediately after calving via the jugular vein before feeding a morning feed every 2 weeks for 8 weeks. The collected blood was aliquoted into a serum tube (BD Vacutainer, Plymouth, UK) and a heparin tube (Becton-Dickinson, Belliver Industrial Estate, Plymouth, PL6 7BP, UK) and centrifuged (3,500 rpm, 15 min, 20° C.) to separate plasma.
Samples for analysis of metabolic changes such as albumin, glutamic-oxalacetic transaminase (GOT), blood urea nitrogen (BUN), triglycerides (TG), cholesterol (CHO), glucose (GLU), and non-esterified fatty acid (NEFA) were aliquoted into a 1.5 mL tube (Eppendorf AG, Hamburg, Germany) in an amount of 500 μL each and stored in a deep freezer at −80° C.

[4] = test system: calves born from dairy cattle; test: Change in hematological properties of calves born from dairy cattle according to NALT feeding; type: in vivo, Holstein Friesian cows (calves)
Description: as §1, §2, §3, §4
(§5) Blood samples for analysis of changes in hematological properties such as white blood cells (WBC), lymphocytes, monocytes, granulocytes, mean corpuscular volume, mean corpuscular hemoglobin, and platelets were aliquoted into an ethylenediaminetetraacetic acid (EDTA)-treated vacutainer (Becton-Dickinson, Franklin Lakes, N.J., USA) and analyzed using a VetScan HM2 Hematology System (ABAXIS, Calif., USA).

[5] = test system: dairy cattle after calving; test: Change in hematological properties of dairy cattle after calving according to NALT feeding; type: in vivo, Holstein Friesian cows
Description: as §1, §2, §3, §4, §5

[6] = test system: dairy cattle in dry period; test: Change in hematological properties of dairy cattle in dry period according to NALT feeding; type: in vivo, Holstein Friesian cows
Description: as §1, §2, §3, §4, §5

[7] = test system: dry cows in the late stage of gestation; test: Analysis of feed intake of dairy cattle according to NALT feeding; type: in vivo, Holstein Friesian cows; details: for feed intake: basal diet supplemented with NALT (15 g/d)
Description: as §1, §2, §3
An amount of the feed left over was recorded for each cow at 9 a.m. every morning to measure a daily feed intake.

[8] = calves born from NALT-treated dairy cattle

CC(=O)N[C@@H](Cc1c[nH]c2ccccc12)C(=O)O [NALT, N-acetyl-L-tryptophan]
weight of calf, Increment ([1]; 0 to 8 wk): 28.28 kg
weight of calf ([1]; 0 wk (birth weight)): 41.43 kg
weight of calf ([1]; 2 wk after birth): 46.05 kg
weight of calf ([1]; 4 wk after birth): 52.75 kg
weight of calf ([1]; 6 wk after birth): 60.95 kg
weight of calf ([1]; 8 wk after birth): 69.70 kg
weight of calf, total AVG ([1]; average 0 to 8 wk): 54.18 kg
birth weight of calves greater than control ([1]; week 0, on average): 5.47 kg and 5.53 kg
average weight of calves greater than control ([1]; week 2): 5.1 kg
average weight of calves greater than control ([1]; week 4): 4.67 kg
average weight of calves greater than control ([1]; week 6): 4.22 kg
average weight of calves greater than control ([1]; week 8): 5.9 kg
average weight of calves greater than control ([1]; weeks 2, 4, 6 and 8 overall): about 5 kg
Milk yield ([2]; 0 wk (immediately after calving)): 24.03 kg
increase in average milk yield compared with control ([2]; 8 weeks after calving): ≥ 4 kg
Milk yield, total AVG ([2]; average over 8 weeks after calving): 35.44 kg
glucose (Glu) index of newborn calves compared with control ([3]; calves of the NALT-treated group, 8 weeks after birth): statistically significant difference; also recorded: decreasing a blood glucose level
Albumin ([3]; calves, 0 wk): 2.50 g/dL
BUN ([3]; calves, 0 wk): 10.00 mg/dL
CHO ([3]; calves, 0 wk): 33.00 mg/dL
GLU ([3]; calves, 0 wk): 54.75 mg/dL
GOT ([3]; calves, 0 wk): 47.25 U/L
TG ([3]; calves, 0 wk): 14.50 mg/dL
Albumin, total AVG ([3]; calves, average 0 to 8 weeks): 3.36 g/dL
BUN, total AVG ([3]; calves, average 0 to 8 weeks): 11.30 mg/dL
CHO, total AVG ([3]; calves, average 0 to 8 weeks): 109.30 mg/dL
GOT, total AVG ([3]; calves, average 0 to 8 weeks): 62.55 U/L
TG, total AVG ([3]; calves, average 0 to 8 weeks): 34.40 mg/dL
GLU, total AVG ([3]; calves, average 0 to 8 weeks, P 0.015): 78.95 mg/dL
initial index of mean corpuscular hemoglobin (MCH) of newborn calves compared with control [4, 8]: statistically significant difference
initial index of mean corpuscular volume (MCV) of newborn calves compared with control [4, 8]: statistically significant difference
monocyte index of newborn calves compared with control [4, 8]: significant differences
Monocyte ([4]; calves, 0 wk, reference 0-0.84): 0.32 K/uL
Granulocyte ([4]; calves, 0 wk, reference 0.6-6.7): 9.68 K/uL
Lymphocyte ([4]; calves, 0 wk, reference 2.5-7.5): 3.72 K/uL
WBC ([4]; calves, 0 wk, reference 4-12): 13.72 K/uL
MCH ([4]; calves, 0 wk, reference 11-17, P 0.056): 12.95 pg
MCV ([4]; calves, 0 wk, reference 40-60, P 0.027): 39.00 fL
Platelet ([4]; calves, 0 wk, reference 100-800): 512.75 K/ul
Monocyte, total AVG ([4]; calves, average 0 to 8 weeks, reference 0-0.84, P 0.031): 0.53 K/uL
Granulocyte, total AVG ([4]; calves, average 0 to 8 weeks, reference 0.6-6.7): 4.69 K/uL
Lymphocyte, total AVG ([4]; calves, average 0 to 8 weeks, reference 2.5-7.5): 6.93 K/uL
WBC, total AVG ([4]; calves, average 0 to 8 weeks, reference 4-12): 12.14 K/uL
MCH, total AVG ([4]; calves, average 0 to 8 weeks, reference 11-17): 11.20 pg
MCV, total AVG ([4]; calves, average 0 to 8 weeks, reference 40-60): 31.80 fL
Platelet, total AVG ([4]; calves, average 0 to 8 weeks, reference 100-800): 584.35 K/ul
immune response of the calves born from dairy cattle ([4]; conclusion drawn from hematology of calves): positive effects
effect on hematological properties of dairy cattle compared with control [5]: did not significantly affect
Monocyte ([5]; 0 wk, reference 0-0.84): 0.92 K/uL
Granulocyte ([5]; 0 wk, reference 0.6-6.7): 6.41 K/uL
Lymphocyte ([5]; 0 wk, reference 2.5-7.5): 7.99 K/uL
WBC ([5]; 0 wk, reference 4-12): 15.32 K/uL
MCH ([5]; 0 wk, reference 11-17): 16.80 pg
MCV ([5]; 0 wk, reference 40-60): 47.00 fL
Platelet ([5]; 0 wk, reference 100-800): 348.75 K/ul
Monocyte, total AVG ([5]; average 0 to 8 weeks, reference 0-0.84): 0.91 K/uL
Granulocyte, total AVG ([5]; average 0 to 8 weeks, reference 0.6-6.7): 5.18 K/uL
Lymphocyte, total AVG ([5]; average 0 to 8 weeks, reference 2.5-7.5): 7.86 K/uL
WBC, total AVG ([5]; average 0 to 8 weeks, reference 4-12): 13.95 K/uL
MCH, total AVG ([5]; average 0 to 8 weeks, reference 11-17): 16.60 pg
MCV, total AVG ([5]; average 0 to 8 weeks, reference 40-60): 46.55 fL
Platelet, total AVG ([5]; average 0 to 8 weeks, reference 100-800): 480.51 K/ul
Monocyte ([6]; dry period, 0 wk, reference 0-0.84): 0.48 K/uL
Granulocyte ([6]; dry period, 0 wk, reference 0.6-6.7): 3.89 K/uL
Lymphocyte ([6]; dry period, 0 wk, reference 2.5-7.5): 7.68 K/uL
WBC ([6]; dry period, 0 wk, reference 4-12): 10.45 K/uL
MCH ([6]; dry period, 0 wk, reference 11-17): 16.01 pg
MCV ([6]; dry period, 0 wk, reference 40-60): 46.75 fL
Platelet ([6]; dry period, 0 wk, reference 100-800): 297.67 K/ul
Monocyte, total AVG ([6]; dry period, average 0 to 6 weeks, reference 0-0.84): 0.74 K/uL
Granulocyte, total AVG ([6]; dry period, average 0 to 6 weeks, reference 0.6-6.7): 3.29 K/uL
Lymphocyte, total AVG ([6]; dry period, average 0 to 6 weeks, reference 2.5-7.5): 7.88 K/uL
WBC, total AVG ([6]; dry period, average 0 to 6 weeks, reference 4-12): 11.91 K/uL
MCH, total AVG ([6]; dry period, average 0 to 6 weeks, reference 11-17): 16.74 pg
MCV, total AVG ([6]; dry period, average 0 to 6 weeks, reference 40-60): 47.54 fL
Platelet, total AVG ([6]; dry period, average 0 to 6 weeks, reference 100-800): 331.35 K/ul
effect on hematological properties of dairy cattle compared with control ([6]; during the dry period): did not significantly affect
overall feed intake compared with control ([7]; 6 weeks of dry period): numerical increase; also recorded: numerically increased
feed intake ([7]; week 0 of dry period): 6.63 kg
feed intake ([7]; week 1 of dry period): 6.85 kg
feed intake compared with control ([7]; week 2, p<0.05): statistically significant increase
feed intake ([7]; week 2 of dry period): 7.73 kg
feed intake ([7]; week 3 of dry period): 7.62 kg
increase in feed intake compared with control ([7]; week 4, control 6.46 kg): 1.43 kg
feed intake ([7]; week 4 of dry period): 7.69 kg
feed intake ([7]; week 5 of dry period): 7.63 kg
